Test system: 1807 cells
Format: cell-based, mouse
Details: Calnexin peptide #1, 13 amino acid sequence of the named species

Sequence: LVLKSRAKHHAIS [Homo sapiens (Calmegin)]
- 1807 reactive: not reactive with the 1807 cells
